From PubChem BioAssay (NCI)
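Cultured in 96-well plates, cells were exposed to test compound for 48 hours across five concentrations. TGI: concentration producing complete growth inhibition.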

Legend:
Test in all cases: DTP human tumour cell line panel, 48 h
DU-145 prostate = system: DU-145 prostate
HCT-15 colon = system: HCT-15 colon
HL-60(TB) leukemia = system: HL-60(TB) leukemia
HS 578T breast = system: HS 578T breast
HT29 colon = system: HT29 colon
IGROV1 ovarian = system: IGROV1 ovarian
KM12 colon = system: KM12 colon
MDA-MB-231 breast = system: MDA-MB-231 breast
MOLT-4 leukemia = system: MOLT-4 leukemia
OVCAR-4 ovarian = system: OVCAR-4 ovarian
PC-3 prostate = system: PC-3 prostate
SK-OV-3 ovarian = system: SK-OV-3 ovarian
SN12C renal = system: SN12C renal
TK-10 renal = system: TK-10 renal

| Structure (SMILES) | TGI (DU-145 prostate) [µM] | TGI (HCT-15 colon) [µM] | TGI (HL-60(TB) leukemia) [µM] | TGI (HS 578T breast) [µM] | TGI (HT29 colon) [µM] | TGI (IGROV1 ovarian) [µM] | TGI (KM12 colon) [µM] | TGI (MDA-MB-231 breast) [µM] | TGI (MOLT-4 leukemia) [µM] | TGI (OVCAR-4 ovarian) [µM] | TGI (PC-3 prostate) [µM] | TGI (SK-OV-3 ovarian) [µM] | TGI (SN12C renal) [µM] | TGI (TK-10 renal) [µM] |
| --- | --- | --- | --- | --- | --- | --- | --- | --- | --- | --- | --- | --- | --- | --- |
| CCOC(=O)Cn1c(=O)c2nc(SC)sc2n(-c2ccc(C)cc2)c1=S | > 100 | > 100 | > 100 | > 66.5 | > 100 | > 100 | > 100 | > 100 | > 100 | 35.2 | > 100 | > 100 | > 100 | > 89.8 |
| NC(=S)SCCC(=O)O | > 100 | > 100 | > 100 | > 100 | > 100 | > 100 | > 100 | > 100 | > 100 | > 100 | > 100 | > 100 | > 100 | > 100 |
| CC(=O)C1(c2ccccc2)CCN(Cn2sc3nc(C)cc(C)c3c2=O)CC1 | > 100 | 72.8 | 52.5 | > 100 | 36.9 | > 100 | > 100 | > 100 | 77.3 | 48 | > 100 | > 100 | 49.8 | 36.1 |
| CCOC(=O)CSc1nc(-c2ccc(OC)cc2)c(C#N)c(=O)[nH]1 | > 100 | > 100 | > 100 | > 100 | > 100 | > 100 | > 100 | > 100 | > 100 | > 100 | > 100 | > 100 | > 100 | > 100 |
| CC1=C(C)SC(=C2Sc3c(n(C)c(=O)[nH]c3=O)S2)S1 | > 100 | > 100 | > 100 | > 100 | > 100 | > 100 | > 100 | > 100 | > 100 | > 100 | > 100 | > 100 | > 100 | > 100 |
| O=c1c2cccnc2[nH]c2ccc3scnc3c12 | > 10 | > 10 | > 10 | > 10 | > 10 | > 10 | > 10 | > 10 | > 10 | > 10 | > 10 | > 10 | > 10 | > 10 |
